Several values for one entry are separate records, joined by “and”; a condition that tells them apart may be missing. Equal values may be shown once.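 Where inhibition never reached the appropriate level, the endpoint shown equals the highest concentration tested. Otherwise, values were interpolated linearly from a five-concentration, 48-hour dose response in 96-well plates. GI50 = concentration required for 50% inhibition of growth.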 Activity calls are given as the source filed them. Rule as the data show it: active = GI50 up to about 1.1 µM and inactive = higher.
Assays:
Assay in all cases: NCI tumour cell line growth inhibition, 48 h
SK-MEL-2 = tested on: SK-MEL-2
EKVX = tested on: EKVX
DMS-273 = tested on: DMS-273
DU-145 = tested on: DU-145
T47D = tested on: T47D
UACC-257 = tested on: UACC-257
A498 = tested on: A498
OVCAR-5 = tested on: OVCAR-5
KM-20L2 = tested on: KM-20L2
XF498 = tested on: XF498
Hs-578T = tested on: Hs-578T
MDA-MB-435 = tested on: MDA-MB-435
CCRF-CEM = tested on: CCRF-CEM
NCI-H226 = tested on: NCI-H226
786-0 = tested on: 786-0
Malme-3M = tested on: Malme-3M
HOP-18 = tested on: HOP-18
HOP-92 = tested on: HOP-92
TK-10 = tested on: TK-10
OVCAR-3 = tested on: OVCAR-3
SK-OV-3 = tested on: SK-OV-3
SR = tested on: SR
BT-549 = tested on: BT-549
SF-539 = tested on: SF-539
DLD-1 = tested on: DLD-1
SNB-78 = tested on: SNB-78
MDA-MB-231 = tested on: MDA-MB-231
LOX IMVI = tested on: LOX IMVI
HL-60 = tested on: HL-60
KM12 = tested on: KM12
IGROV-1 = tested on: IGROV-1
RXF 393 = tested on: RXF 393
COLO 205 = tested on: COLO 205
MOLT-4 = tested on: MOLT-4
PC-3 = tested on: PC-3
OVCAR-4 = tested on: OVCAR-4
SN12C = tested on: SN12C
A549 = tested on: A549
ACHN = tested on: ACHN
HT-29 = tested on: HT-29
M19-MEL = tested on: M19-MEL
NCI-H23 = tested on: NCI-H23
UO-31 = tested on: UO-31
M14 = tested on: M14
OVCAR-8 = tested on: OVCAR-8
NCI-H460 = tested on: NCI-H460
SNB-75 = tested on: SNB-75
UACC-62 = tested on: UACC-62
SF-268 = tested on: SF-268
U-251 = tested on: U-251
SW-620 = tested on: SW-620
LXFL 529 = tested on: LXFL 529
HCT-15 = tested on: HCT-15
RPMI-8226 = tested on: RPMI-8226
NCI-H522 = tested on: NCI-H522
SNB-19 = tested on: SNB-19
SK-MEL-28 = tested on: SK-MEL-28
K562 = tested on: K562
CAKI-1 = tested on: CAKI-1
HCC 2998 = tested on: HCC 2998
HOP-62 = tested on: HOP-62
DMS-114 = tested on: DMS-114
SK-MEL-5 = tested on: SK-MEL-5
HCT-116 = tested on: HCT-116
SF-295 = tested on: SF-295

N#Cc1cn(C2OC(CO)C(O)C2O)c2ncnc(N)c12 (stereo not drawn)
GI50 (SK-MEL-2): 18.2 nM (active) and 29.6 nM (active)
GI50 (EKVX): 60.3 nM (active) and 94.8 nM (active)
GI50 (DMS-273): 0.0409 µM (active)
GI50 (DU-145): 0.0393 µM (active)
GI50 (T47D): 0.0199 µM (active)
GI50 (UACC-257): 62.2 nM (active) and 81.8 nM (active)
GI50 (A498): 57.4 nM (active) and 114 nM (active)
GI50 (OVCAR-5): 112 nM (active) and 81.7 nM (active)
GI50 (KM-20L2): 0.0476 µM (active)
GI50 (XF498): 0.00414 µM (active)
GI50 (Hs-578T): 0.0302 µM (active)
GI50 (MDA-MB-435): < 0.0169 µM (active)
GI50 (CCRF-CEM): 16.1 nM (active) and 18 nM (active)
GI50 (NCI-H226): 66.4 nM (active) and 66.2 nM (active)
GI50 (786-0): 0.0241 µM (active)
GI50 (Malme-3M): 39.9 nM (active) and 47.5 nM (active)
GI50 (HOP-18): 0.109 µM (active)
GI50 (HOP-92): 46.2 nM (active) and 76.6 nM (active)
GI50 (TK-10): 0.014 µM (active)
GI50 (OVCAR-3): 25.4 nM (active) and 45 nM (active)
GI50 (SK-OV-3): 26 nM (active) and 42.9 nM (active)
GI50 (SR): < 0.01 µM (active)
GI50 (BT-549): 0.0577 µM (active)
GI50 (SF-539): 45.4 nM (active) and 76.4 nM (active)
GI50 (DLD-1): 0.045 µM (active)
GI50 (SNB-78): 0.191 µM (active)
GI50 (MDA-MB-231): 0.0158 µM (active)
GI50 (LOX IMVI): 14.7 nM (active) and 24.9 nM (active)
GI50 (HL-60): < 10 nM (active) and < 13.8 nM (active)
GI50 (KM12): 24.1 nM (active) and 44.4 nM (active)
GI50 (IGROV-1): 47.1 nM (active) and 23.8 nM (active)
GI50 (RXF 393): 23.2 nM (active) and 21.7 nM (active)
GI50 (COLO 205): 14.6 nM (active) and < 16.4 nM (active)
GI50 (MOLT-4): 23.9 nM (active) and 25.3 nM (active)
GI50 (PC-3): 0.015 µM (active)

O=C(O)CN(c1ccccc1)S(=O)(=O)c1ccc(NC(=O)c2ccccc2)cc1
GI50 (SK-MEL-2): > 100 µM (inactive)
GI50 (EKVX): > 100 µM (inactive)
GI50 (OVCAR-4): > 100 µM (inactive)
GI50 (SN12C): > 100 µM (inactive)
GI50 (A549): > 100 µM (inactive)
GI50 (ACHN): > 100 µM (inactive)
GI50 (HT-29): > 10 µM (inactive)
GI50 (DMS-273): > 100 µM (inactive)
GI50 (M19-MEL): > 100 µM (inactive)
GI50 (NCI-H23): > 100 µM (inactive)
GI50 (UO-31): > 100 µM (inactive)
GI50 (UACC-257): > 100 µM (inactive)
GI50 (A498): > 100 µM (inactive)
GI50 (OVCAR-5): > 100 µM (inactive)
GI50 (M14): > 100 µM (inactive)
GI50 (KM-20L2): > 100 µM (inactive)
GI50 (XF498): > 100 µM (inactive)
GI50 (OVCAR-8): > 100 µM (inactive)
GI50 (NCI-H460): > 100 µM (inactive)
GI50 (SNB-75): > 100 µM (inactive)
GI50 (UACC-62): > 100 µM (inactive)
GI50 (SF-268): > 100 µM (inactive)
GI50 (U-251): > 100 µM (inactive)
GI50 (SW-620): > 100 µM (inactive)
GI50 (LXFL 529): > 100 µM (inactive)
GI50 (CCRF-CEM): > 100 µM (inactive)
GI50 (HCT-15): > 100 µM
GI50 (RPMI-8226): > 100 µM (inactive)
GI50 (786-0): > 100 µM (inactive)
GI50 (Malme-3M): > 100 µM (inactive)
GI50 (HOP-18): > 100 µM (inactive)
GI50 (HOP-92): > 100 µM (inactive)
GI50 (NCI-H522): > 100 µM (inactive)
GI50 (TK-10): > 100 µM (inactive)
GI50 (SNB-19): > 100 µM (inactive)
GI50 (SK-MEL-28): > 100 µM (inactive)
GI50 (SK-OV-3): > 100 µM (inactive)
GI50 (K562): > 100 µM (inactive)
GI50 (SF-539): > 100 µM (inactive)
GI50 (DLD-1): > 100 µM (inactive)
GI50 (LOX IMVI): > 100 µM (inactive)
GI50 (HL-60): > 100 µM (inactive)
GI50 (IGROV-1): > 100 µM (inactive)
GI50 (CAKI-1): > 100 µM (inactive)
GI50 (RXF 393): > 100 µM (inactive)
GI50 (COLO 205): > 100 µM (inactive)
GI50 (MOLT-4): > 100 µM (inactive)

COc1ccc(/C=C2\CCc3ccccc3C2=O)cc1OC
GI50 (SK-MEL-2): 31.1 µM (inactive)
GI50 (HCC 2998): 45.5 µM (inactive)
GI50 (EKVX): 51.8 µM (inactive)
GI50 (OVCAR-4): 17.8 µM (inactive)
GI50 (HOP-62): 76.7 µM (inactive)
GI50 (SN12C): 25.2 µM (inactive)
GI50 (A549): 38.2 µM (inactive)
GI50 (DMS-114): 17.1 µM (inactive)
GI50 (ACHN): 24.5 µM (inactive)
GI50 (HT-29): 27.8 µM (inactive)
GI50 (M19-MEL): 30.1 µM (inactive)
GI50 (NCI-H23): 19.6 µM (inactive)
GI50 (UO-31): 29.2 µM (inactive)
GI50 (UACC-257): 18.9 µM (inactive)
GI50 (A498): 46.6 µM (inactive)
GI50 (OVCAR-5): 67.3 µM (inactive)
GI50 (M14): 22.4 µM (inactive)
GI50 (KM-20L2): 30.8 µM (inactive)
GI50 (XF498): 17.7 µM (inactive)
GI50 (OVCAR-8): 32.1 µM (inactive)
GI50 (NCI-H460): 34.8 µM (inactive)
GI50 (SK-MEL-5): 15.9 µM (inactive)
GI50 (SNB-75): 21.4 µM (inactive)
GI50 (UACC-62): 16 µM (inactive)
GI50 (SF-268): 20.8 µM (inactive)
GI50 (U-251): 31 µM (inactive)
GI50 (SW-620): 28.4 µM (inactive)
GI50 (LXFL 529): 25.7 µM (inactive)
GI50 (CCRF-CEM): 24.8 µM (inactive)
GI50 (HCT-15): 17.2 µM
GI50 (RPMI-8226): 13.9 µM (inactive)
GI50 (786-0): 34.5 µM (inactive)
GI50 (Malme-3M): 38.3 µM (inactive)
GI50 (HCT-116): 17.9 µM (inactive)
GI50 (HOP-18): 33 µM (inactive)
GI50 (NCI-H522): 17.1 µM (inactive)
GI50 (TK-10): 32.6 µM (inactive)
GI50 (SNB-19): 46 µM (inactive)
GI50 (OVCAR-3): 33.6 µM (inactive)
GI50 (SK-MEL-28): 25.3 µM (inactive)
GI50 (SK-OV-3): 18.7 µM (inactive)
GI50 (K562): 23.2 µM (inactive)
GI50 (SF-539): 22.3 µM (inactive)
GI50 (DLD-1): 21.9 µM (inactive)
GI50 (SNB-78): 33.7 µM (inactive)
GI50 (KM12): 19.6 µM (inactive)
GI50 (IGROV-1): 27.4 µM (inactive)
GI50 (CAKI-1): 31.6 µM (inactive)
GI50 (COLO 205): 19.5 µM (inactive)
GI50 (MOLT-4): 21.4 µM (inactive)
GI50 (SF-295): 32.9 µM (inactive)
